From patent US12173001B1, “Pyrido[3,4-e][1,2,4]triazolo[4,3-c]pyrimidines as CK2 inhibitors” (King Faisal University, priority 2024, dated 2024)

Assays:
HCT116 (colon) = assay: In vitro cytotoxic activity (MTT) assay, HCT116; format: cell-based; settings: Homo sapiens, HCT-116, cells exposed for 96 hours, read-out: Cytotoxicity activity IC50 (50% inhibition of cell proliferation)
Experimental: (§1) Compounds 1-16 were screened for their in vitro cytotoxic activity utilizing a 3-(4,5-dimethyl-thiazol-2-yl)-2,5-diphenyltetrazolium bromide (MTT) assay against selected cancer human cell lines consisting of PC3 (prostate), HCT116 (colon), A375 (melanoma), H1299 (lung), MIAPaCa-2 (pancreas), HL60 (leukemia), MCF7 (breast), MDA-MB-231 (breast) (T. Mosmann, J. Immunol. Meth., 1983, 65, 55-63). The cells were cultured at 37° C. in RMPI1640 medium supplemented with 10% fetal bovine serum, 50 IU/mL penicillin, and […] streptomycin in a 5% CO2 incubator. All cells were sub-cultured 3 times/week by trypsinization. Viable cells were seeded and allowed to adhere for 12 hours before a test drug was added in 96-well plates at an initial density of 1.0×10^5 cells/mL. Tumor cell lines were separately exposed to various concentrations of the tested compounds followed by incubation at a temperature of 37° C. during 96 hours inside a medium of fresh RMPI 1640. Cells were subsequently incubated at 37° C. using MTT at 0.5 mg/mL during 4 hours. After removal of supernatant, formazan crystals were dissolved in isopropanol and the optical density was measured at 570 nm. CX-4945 was used as a positive control.

HL60 (leukemia) = assay: In vitro cytotoxic activity (MTT) assay, HL60; format: cell-based; settings: Homo sapiens, HL-60, cells exposed for 96 hours, read-out: Cytotoxicity activity IC50 (50% inhibition of cell proliferation)
Experimental: as §1

recombinant human CK2 = target: T1, recombinant human CK2 (Homo sapiens, UniProt P68400); assay: CK2 Kinase Assay (33P-ATP, filter plate); format: biochemical; settings: final ATP concentration 15 μM, 10 min at 30° C.; read-out: protein kinase CK2 activity IC50
T1 construct: purchased Millipore
T1 sequence (P68400 whole entry): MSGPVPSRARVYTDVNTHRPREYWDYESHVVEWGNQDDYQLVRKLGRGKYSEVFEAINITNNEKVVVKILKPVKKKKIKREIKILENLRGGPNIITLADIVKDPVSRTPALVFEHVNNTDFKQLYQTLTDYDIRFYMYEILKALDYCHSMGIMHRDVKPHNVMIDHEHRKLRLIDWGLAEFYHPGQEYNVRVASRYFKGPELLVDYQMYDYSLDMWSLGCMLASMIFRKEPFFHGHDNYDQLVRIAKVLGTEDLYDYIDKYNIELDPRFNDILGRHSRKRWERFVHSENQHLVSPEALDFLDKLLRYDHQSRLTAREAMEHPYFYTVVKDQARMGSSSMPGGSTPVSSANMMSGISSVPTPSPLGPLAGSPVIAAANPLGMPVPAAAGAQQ
T1 sequence (P67870 whole entry partner): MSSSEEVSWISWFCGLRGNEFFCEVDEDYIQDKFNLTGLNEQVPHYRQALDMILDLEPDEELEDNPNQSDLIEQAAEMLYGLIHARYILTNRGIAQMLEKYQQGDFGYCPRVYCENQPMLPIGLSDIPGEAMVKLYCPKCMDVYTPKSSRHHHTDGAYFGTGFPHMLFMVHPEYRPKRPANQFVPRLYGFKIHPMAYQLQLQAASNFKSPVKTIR
Experimental: CK2 Kinase Assay was conducted using the protocol as described in Pierre F. et al; J. Med. Chem. 2011, 54, 635-654. The tested compounds in aqueous solution were added at a volume of 10 μL to a reaction mixture comprising 10 μL of assay dilution buffer (ADB; 20 mM MOPS, pH 7.2, 25 mM β-glycerol phosphate, 5 mM EGTA, 1 mM sodium orthovanadate, and 1 mM dithiothreitol), 10 μL of substrate peptide (RRRDDDSDDD (SEQ 1), dissolved in ADB at a concentration of 1 mM), 10 μL of recombinant human CK2 (RROP-holoenzyme, 25 ng dissolved in ADB; Millipore). Reactions were initiated by the addition of 10 μL of ATP solution (90% 75 mMMgCl2, 75 μM ATP (final ATP concentration: 15 μM) dissolved in ADB; 10% [γ-33P] ATP (stock 1mCi/100 μL; 3000 Ci/mmol (Perkin-Elmer) and maintained for 10 min at 30° C. The reactions were quenched with 100 μL of 0.75% phosphoric acid and then transferred to and filtered through a phosphor cellulose filter plate (Millipore). After washing each well five times with 0.75% phosphoric acid, the plate was dried under vacuum for 5 min and, following the addition of 15 μL of scintillation fluid to each well, the residual radioactivity was measured using a Wallac luminescence counter. The IC50 values were derived from eight concentrations of test inhibitors.

H1299 (lung) = assay: In vitro cytotoxic activity (MTT) assay, H1299; format: cell-based; settings: Homo sapiens, NCI-H1299, cells exposed for 96 hours, read-out: Cytotoxicity activity IC50 (50% inhibition of cell proliferation)
Experimental: as §1

A375 (melanoma) = assay: In vitro cytotoxic activity (MTT) assay, A375; format: cell-based; settings: Homo sapiens, A-375, cells exposed for 96 hours, read-out: Cytotoxicity activity IC50 (50% inhibition of cell proliferation)
Experimental: as §1

PC3 (prostate) = assay: In vitro cytotoxic activity (MTT) assay, PC3; format: cell-based; settings: Homo sapiens, Prostate cell, cells exposed for 96 hours, read-out: Cytotoxicity activity IC50 (50% inhibition of cell proliferation)
Experimental: as §1

MIAPaCa-2 (pancreas) = assay: In vitro cytotoxic activity (MTT) assay, MIAPaCa-2; format: cell-based; settings: Homo sapiens, MIA PaCa-2, cells exposed for 96 hours, read-out: Cytotoxicity activity IC50 (50% inhibition of cell proliferation)
Experimental: as §1

MDA-MB-231 (breast) = assay: In vitro cytotoxic activity (MTT) assay, MDA-MB-231; format: cell-based; settings: Homo sapiens, cells exposed for 96 hours, read-out: Cytotoxicity activity IC50 (50% inhibition of cell proliferation)
Experimental: as §1

MCF7 (breast) = assay: In vitro cytotoxic activity (MTT) assay, MCF7; format: cell-based; settings: Homo sapiens, cells exposed for 96 hours, read-out: Cytotoxicity activity IC50 (50% inhibition of cell proliferation)
Experimental: as §1

- IC50 (recombinant human CK2): 0.032 µM
SMILES: O=C(O)c1nnc2c3cnccc3nc(Nc3cccc(Cl)c3)n12 [Compound 1, 5-((3-chlorophenyl)amino)pyrido[3,4-e][1,2,4]triazolo[4,3-c]pyrimidine-3-carboxylic acid]
- IC50 (HCT116 (colon)): 2.8 µM
- IC50 (HL60 (leukemia)): 5.8 µM
- IC50 (H1299 (lung)): 3.1 µM
- IC50 (A375 (melanoma)): 5.4 µM
- IC50 (PC3 (prostate)): 1.5 µM
- IC50 (MIAPaCa-2 (pancreas)): 1.3 µM
- IC50 (MDA-MB-231 (breast)): 4.5 µM
- IC50 (MCF7 (breast)): 4.9 µM
